Assay type in all cases: in vivo
The subject of one test is Venturia inaequalis. Kind of test: Venturia test (apples)/preventive. The settings on record: for pest or weed control at 20 ppm / pest or weed control at 4 ppm / pest or weed control at 2 ppm / pest or weed control at 50 ppm / pest or weed control at 100 ppm: Venturia inaequalis, 240 h, read-out: Efficacy in % found; for pest or weed control at 4 ppm: application rate 4 ppm a.i.; for pest or weed control at 2 ppm: application rate 2 ppm a.i. From the text:
(§1) A synergistic effect of fungicides is always present when the fungicidal activity of the active compound combinations exceeds the total of the activities of the active compounds when applied individually. The expected activity for a given combination of two active compounds can be calculated as follows (cf. Colby, S. R., “Calculating Synergistic and Antagonistic Responses of Herbicide Combinations”, Weeds 1967, 15, 20-22):
(§2) If • X is the efficacy when active compound A is applied at an application rate of m ppm (or g/ha), • Y is the efficacy when active compound B is applied at an application rate of n ppm (or g/ha), • E is the efficacy when the active compounds A and B are applied at application rates of m and n ppm (or g/ha), respectively, and
Venturia test (apples)/preventive • Solvent: 24.5 parts by weight of acetone • 24.5 parts by weight of dimethylacetamide • Emulsifier: 1 part by weight of alkylaryl polyglycol ether
(§3) To produce a suitable preparation of active compound, 1 part by weight of active compound is mixed with the stated amounts of solvent and emulsifier, and the concentrate is diluted with water to the desired concentration.
To test for preventive activity, young plants are sprayed with the preparation of active compound at the stated rate of application. After the spray coating has dried on, the plants are inoculated with an aqueous conidia suspension of the causal agent of apple scab (Venturia inaequalis) and then remain for 1 day in an incubation cabinet at approximately 20° C. and a relative atmospheric humidity of 100%.
The plants are then placed in a greenhouse at approximately 21° C. and a relative atmospheric humidity of approximately 90%.
The test is evaluated 10 days after the inoculation. 0% means an efficacy which corresponds to that of the untreated control, while an efficacy of 100% means that no disease is observed.

Another test relates to Sphaerotheca fuliginea. As to the kind of experiment: Sphaerotheca test (cucumbers)/preventive.
Text: as §1, §2
Sphaerotheca Test (Cucumbers)/Preventive • Solvent: 24.5 parts by weight of acetone • 24.5 parts by weight of dimethylacetamide • Emulsifier: 1 part by weight of alkylaryl polyglycol ether
as §3
To test for preventive activity, young plants are sprayed with the preparation of active compound at the stated rate of application. After the spray coating has dried on, the plants are inoculated with an aqueous spore suspension of Sphaerotheca fuliginea. The plants are then placed in a greenhouse at approximately 23° C. and a relative atmospheric humidity of approximately 70%.
The test is evaluated 7 days after the inoculation. 0% means an efficacy which corresponds to that of the untreated control, while an efficacy of 100% means that no disease is observed.

A further test has as its system Alternaria solani. As to the kind of experiment: Alternaria test (tomatoes)/preventive. To be noted: for pest or weed control at 20 ppm: application rate 20 ppm a.i.; for pest or weed control at 25 ppm: application rate 25 ppm a.i.; for pest or weed control at 100 ppm: application rate 100 ppm a.i.
Text: as §1, §2
Alternaria Test (Tomatoes)/Preventive • Solvent: 24.5 parts by weight of acetone • 24.5 parts by weight of dimethylacetamide • Emulsifier: 1 part by weight of alkylaryl polyglycol ether
as §3
To test for preventive activity, young plants are sprayed with the preparation of active compound at the stated rate of application. After the spray coating has dried on, the plants are inoculated with an aqueous spore suspension of Alternaria solani. The plants are then placed in an incubation cabinet at approximately 20° C. and a relative atmospheric humidity of 100%.
The test is evaluated 3 days after the inoculation. 0% means an efficacy which corresponds to that of the untreated control while an efficacy of 100% means that no disease is observed.

For the next test, the system named is Phytophthora infestans. As to the kind of experiment: whole plant or invertebrate. The settings on record: for Efficacy in % found / pest or weed control at 2.5 ppm: application rate 2.5 ppm a.i.; for pest or weed control at 0.005 ppm: application rate 0.005 ppm a.i.; for pest or weed control at 0.01 ppm: application rate 0.01 ppm a.i.; for pest or weed control at 0.0025 ppm: application rate 0.0025 ppm a.i.

Setting [1] is: Table 7, application rate 4 ppm a.i.
[2] abbreviates: Phytophthora infestans, 72 h, read-out: Efficacy in % found, Table 5.
Where [3] appears, read: Alternaria solani, 72 h, Table 2, read-out: Efficacy in % found.
Setting [4] is: Table 9, application rate 50 ppm a.i.
Setting [5] is: Table 10, application rate 50 ppm a.i.
[6] abbreviates: Table 10, application rate 100 ppm a.i.
[7] abbreviates: Table 11, application rate 50 ppm a.i.
Setting [8] is: Table 11, application rate 100 ppm a.i.
Setting [9] is: Table 12, application rate 100 ppm a.i.
The mark [10] stands for this setting: Table 13, application rate 100 ppm a.i.
The mark [11] stands for this setting: Alternaria solani, 72 h, Table 1, read-out: Efficacy in % found.
[12] abbreviates: Phytophthora infestans, 72 h, read-out: Efficacy in % found, Table 3.
Where [13] appears, read: Phytophthora infestans, 72 h, read-out: Efficacy in % found, Table 4.
Where [14] appears, read: Phytophthora infestans, 72 h, read-out: Efficacy in % found, Table 6.
[15] abbreviates: Table 7, application rate 100 ppm a.i.

Where two headings read alike, the source gives them in different places.

As for `O=C(Nc1ccccc1-c1ccc(Cl)cc1)c1cccnc1Cl` [2.2, boscalid], the pest or weed control at 20 ppm in the test on Venturia inaequalis (Table 11, application rate 20 ppm a.i.) was found to be 85%. The “Efficacy in % found” value in the test with Sphaerotheca fuliginea (Table 8, application rate 20 ppm a.i.) is recorded as 62%; with Sphaerotheca fuliginea (Table 8, application rate 40 ppm a.i.) it was 86%.
Regarding `O=C(NCCc1ncc(C(F)(F)F)cc1Cl)c1ccccc1C(F)(F)F` [2.6, fluopyram], in the test on Venturia inaequalis (Table 10), the pest or weed control at 4 ppm was 21%. Moreover, in the test with Alternaria solani (Alternaria solani, 72 h, Table 1, application rate 1 ppm a.i., read-out: Efficacy in % found), the pest or weed control at 1 ppm came to 48%. Further, in the test on Sphaerotheca fuliginea (setting [1]), the “Efficacy in % found” value worked out at 19%.
`Cn1cc(C(=O)Nc2ccccc2-c2cc(F)c(F)c(F)c2)c(C(F)F)n1` [2.8, fluxapyroxad]: the “Efficacy in % found” value was found to be 25% in the test with Venturia inaequalis (Table 10, application rate 0.5 ppm a.i.); 0% in the test on Phytophthora infestans (Table 5); 38% in the test on Sphaerotheca fuliginea (Table 7, application rate 1 ppm a.i.).
Take `CC(C)CC(C)c1sccc1NC(=O)c1cn(C)nc1C(F)(F)F` (stereo not shown) [2.21, penthiopyrad]: the pest or weed control at 2 ppm in the test on Venturia inaequalis (Table 10) was found to be 8%. The pest or weed control at 0.5 ppm in the test with Alternaria solani (Alternaria solani, 72 h, Table 1, application rate 0.5 ppm a.i., read-out: Efficacy in % found) stood at 39%. The pest or weed control at 2.5 ppm in the test on Phytophthora infestans (setting [2]) came to 0%.
As to `COC(c1ccc(Cl)cc1Cl)C(C)NC(=O)c1cn(C)nc1C(F)F` (stereo not shown) [2.27, N-[1-(2,4-dichlorophenyl)-1-methoxypropan-2-yl]-3-(difluoromethyl)-1-methyl-1H-pyrazole-4-carboxamide], in the test on Venturia inaequalis (Table 10), the pest or weed control at 2 ppm worked out at 31% and the pest or weed control at 4 ppm amounted to 93%. The pest or weed control at 2.5 ppm in the test on Phytophthora infestans (setting [2]) was found to be 0%. Besides, the pest or weed control at 10 ppm in the test on Phytophthora infestans (Phytophthora infestans, 72 h, read-out: Efficacy in % found, Table 5, application rate 10 ppm a.i.) turned out to be 8%. For the same compound, in the test on Sphaerotheca fuliginea (setting [1]), the “Efficacy in % found” value amounted to 81%.
For `N#Cc1c(Cl)c(Cl)c(Cl)c(C#N)c1Cl` [5.4, chlorothalonil], the pest or weed control at 20 ppm worked out at 14% with Venturia inaequalis (Table 12, application rate 20 ppm a.i.) and 5% in the test on Alternaria solani (setting [3]).
Regarding `[Cu+2].[OH-].[OH-]` [5.5, copper hydroxide], the “Efficacy in % found” value in the test with Venturia inaequalis (Table 13, application rate 20 ppm a.i.) came to 25%; in the test on Phytophthora infestans (Table 6), 18%; in the test on Sphaerotheca fuliginea (Table 9, application rate 10 ppm a.i.), 29%.
Take `[Cl-].[Cu+2].[Cu+2].[OH-].[OH-].[OH-]` [5.8, copper oxychloride]: the “Efficacy in % found” value is on record as 8% in the test on Venturia inaequalis (Table 13, application rate 50 ppm a.i.); 0% in the test on Phytophthora infestans (Table 6); 10% in the test with Sphaerotheca fuliginea (setting [4]).
In the case of `O=C1c2ccccc2C(=O)N1SC(Cl)(Cl)Cl` [5.16, folpet], in the test on Alternaria solani (Alternaria solani, 72 h, Table 2, application rate 10 ppm a.i., read-out: Efficacy in % found), the pest or weed control at 10 ppm turned out to be 0%.
In the case of `Cc1cc(C)nc(Nc2ccccc2)n1` [7.7, pyrimethanil], the pest or weed control at 20 ppm in the test with Alternaria solani (setting [3]) worked out at 32%.
For `Cn1c(=O)c2sc3c(=O)n(C)c(=O)c3sc2c1=O` [15.60, 2,6-dimethyl-1H,5H-[1,4]dithiino[2,3-c:5,6-c′]dipyrrole-1,3,5,7(2H,6H)-tetrone], the pest or weed control at 50 ppm in the test with Venturia inaequalis (Table 12, application rate 50 ppm a.i.) was found to be 24%; in the test on Alternaria solani (Alternaria solani, 72 h, Table 2, application rate 50 ppm a.i., read-out: Efficacy in % found), 32%.
Turning to `CS(=O)(=O)Oc1ccccc1C1CC(c2csc(C3CCN(C(=O)Cn4nc(C(F)F)cc4C(F)F)CC3)n2)=NO1` (stereo not shown) [(I-1), 2-{3-[2-(1-{[3,5-bis(difluoromethyl)-1H-pyrazol-1-yl]acetyl}piperidin-4-yl)-1,3-thiazol-4-yl]-4,5-dihydro-1,2-oxazol-5-yl}phenyl methanesulfonate], the pest or weed control at 50 ppm with Venturia inaequalis (setting [5]) was 0%; with Venturia inaequalis (setting [7]), 4%. The pest or weed control at 100 ppm in the test with Venturia inaequalis (setting [6]) worked out at 0%; in the test with Venturia inaequalis (setting [8]), 13%; with Venturia inaequalis (setting [9]), 21%; in the test on Venturia inaequalis (setting [10]), 0%; in the test with Alternaria solani (setting [3]) it was 34%. Further, the pest or weed control at 25 ppm with Alternaria solani (setting [11]) stood at 20%. Besides, the figures for the pest or weed control at 0.005 ppm in the test with Phytophthora infestans (setting [12]) and with Phytophthora infestans (setting [13]) were 82% and 67%, respectively. Moreover, the pest or weed control at 0.01 ppm with Phytophthora infestans (setting [13]) was determined as 77%. Moreover, the pest or weed control at 0.0025 ppm with Phytophthora infestans (setting [2]) amounted to 52%; with Phytophthora infestans (setting [14]), 48%. Moreover, the “Efficacy in % found” value with Sphaerotheca fuliginea (setting [15]) is 19%; in the test on Sphaerotheca fuliginea (Table 8, application rate 100 ppm a.i.) it was 0%; in the test on Sphaerotheca fuliginea (Table 9, application rate 100 ppm a.i.) it was 38%.
Take `CS(=O)(=O)Oc1cccc(Cl)c1C1CC(c2csc(C3CCN(C(=O)Cn4nc(C(F)F)cc4C(F)F)CC3)n2)=NO1` (stereo not shown) [(I-3), 2-{3-[2-(1-{[3,5-bis(difluoromethyl)-1H-pyrazol-1-yl]acetyl}piperidin-4-yl)-1,3-thiazol-4-yl]-4,5-dihydro-1,2-oxazol-5-yl}-3-chlorophenyl methanesulfonate]: the pest or weed control at 50 ppm in the test with Venturia inaequalis (setting [5]) and in the test with Venturia inaequalis (setting [7]) was 0% throughout. Moreover, the pest or weed control at 100 ppm in the test on Venturia inaequalis (setting [6]) turned out to be 0%; in the test on Venturia inaequalis (setting [8]) it was 15%; in the test on Venturia inaequalis (setting [9]), 0%; in the test on Venturia inaequalis (setting [10]), 0%; with Alternaria solani (setting [3]), 36%. Moreover, the pest or weed control at 25 ppm in the test with Alternaria solani (setting [11]) stood at 0%; in the test on Alternaria solani (setting [3]), 30%. Besides, the figures for the pest or weed control at 0.0025 ppm in the test with Phytophthora infestans (setting [12]), in the test on Phytophthora infestans (setting [2]) and in the test with Phytophthora infestans (setting [14]) were 65%, 59% and 79%, respectively. Further, the pest or weed control at 0.005 ppm with Phytophthora infestans (setting [13]) turned out to be 5%. The pest or weed control at 0.01 ppm in the test with Phytophthora infestans (setting [13]) is 28%; with Phytophthora infestans (setting [2]) it was 87%. Further, the “Efficacy in % found” value in the test with Sphaerotheca fuliginea (setting [15]) worked out at 43%; with Sphaerotheca fuliginea (Table 8, application rate 50 ppm a.i.), 19%; in the test on Sphaerotheca fuliginea (setting [4]), 29%.
Take metiram [5.25]: the “Efficacy in % found” value in the test with Venturia inaequalis (setting [10]) stood at 55%; with Phytophthora infestans (Table 6), 15%; with Sphaerotheca fuliginea (setting [4]) it was 29%.
Take propineb [5.29]: the “Efficacy in % found” value with Alternaria solani (Table 2, application rate 5 ppm a.i.) stood at 0%.

Source of the values: patent publication US12102087B2 (priority 2012, dated 2024).
